# Experimental data published in ChEMBL document CHEMBL3507680, “University of Dundee, Gates Library screen for HepG2 cell viability”.
# Test: Human HepG2 cell viability assay in 384 well format
# Type: toxicity, cell-based
# Parameters: dose 125 nL, time 70.5 hour; cytotoxicity at 70.5 h: concentration not given beside the values
# Conditions: HepG2 cells, read-out: Inhibition
row,Compound,cytotoxicity at 70.5 h [%]
1,COc1ccc(N2CCN(Cc3noc(CC(C)C)n3)C(C)C2=O)cc1 (stereo not drawn),-24.6
2,Cc1cnc(C2(C)CCN(Cc3csc(C)n3)CC2)s1,-4.14
3,CC(C)CN1C[C@H]2C[C@H](C(=O)NCc3cccnc3)[C@@H](C1)O2,2.54
4,COCc1noc(-c2ccc(N3CCC[C@H]3CO)nc2)n1,-7.06
5,CC(C)n1ccnc1C1CCCN(c2nc3ccccc3s2)C1 (stereo not drawn),2.12
6,O=C(CCOCc1ccccc1)N1CCCC1c1noc(C2CC2)n1 (stereo not drawn),-2.09
7,CCCc1nc(CN(C)CC2CCN(CCO)CC2)no1,14.7
8,CCc1ccc(CN(C)c2cc(COC)nc3ccnn23)cc1,-2.38
9,O=C(c1cccnc1SC/C=C/c1ccccc1)N1CCOCC(O)C1 (stereo not drawn),1.08
10,CNS(=O)(=O)c1ccc(CNC(=O)C2CCCO2)cc1 (stereo not drawn),27.2
11,Cc1cncc(C2CCCN(C(=O)c3c[nH]c(=O)[nH]c3=O)C2)n1 (stereo not drawn),-22.8
12,O=C(C1CCOC1)N1CCC2(CCNCC2)C1 (stereo not drawn),27.5
13,CCN1CCN(CC(O)c2ccc(OC(F)(F)F)cc2)CC1 (stereo not drawn),28.9
14,CN1CCCN(C(=O)c2nc3sccn3c2-c2ncc[nH]2)CC1,-13
15,COCCS(=O)(=O)c1ncc(CN(C)CC(C)C)n1Cc1ccccc1,-1.85
16,Cn1nnc2c1CCN(Cc1nccs1)C2COCc1ccccc1 (stereo not drawn),-2.36
17,CN1CCC(c2n[nH]c(=O)n2-c2cccc(Cl)c2)CC1,10.8
18,Cc1cnc(NC(=O)c2cccc(CN(C)Cc3ncccc3C)c2)s1,8.51
19,CCOCCCC(=O)N1CCN(c2cccc(OC)c2)C(C)C1 (stereo not drawn),12.3
20,N#Cc1ccccc1C(=O)N1C[C@@H](CN2CCCCCC2)[C@@H](CO)C1,-7.65
21,CC(=O)c1ccccc1-c1nc(CC2CCN(C)CC2)no1,16.1
22,COc1cccc(CC(=O)N2CCC(c3ccn4nccc4n3)CC2)c1,-3.73
23,Cc1cc(-c2cncnc2)nc(C2CCCN2S(C)(=O)=O)n1 (stereo not drawn),-2.87

row,Compound,cytotoxicity at 70.5 h [%]
1,CCC(CNC(=O)c1nc(=O)[nH][nH]1)Oc1cccc(C(F)(F)F)c1 (stereo not drawn),-3.8
2,O=C(c1cnc(-c2ccccn2)s1)N1CCCC(n2cccn2)C1 (stereo not drawn),10.2
3,Fc1ccc(CNCc2nnc3n2CC(C(F)(F)F)CC3)cc1 (stereo not drawn),-13.6
4,CC(C)c1nccn1C(C)C(=O)N1CCN(S(C)(=O)=O)CC1 (stereo not drawn),-9.53
5,CN(C)c1cccc(C(=O)N2CCn3c(nnc3-c3ccccc3)C2)c1,-7.74
6,Cc1cnn(CCNCC(=O)N2CCN(c3ncccn3)CC2)c1,-4.23
7,CS(=O)(=O)N1CCOCC2(CCN(C(=O)c3ccncc3)CC2)C1,-6.51
8,CN1CCO[C@@H]2CN(S(=O)(=O)c3cccnc3)C[C@@H]2C1,2.04
9,c1cnn(CC2CCCN2c2ncnc3ccsc23)c1 (stereo not drawn),10.7
10,COc1cn(CC(N)=O)c(CSc2nc(C)cc(C)n2)cc1=O,59.2
11,CN(C)C(=O)[C@H]1C[C@@H]2CN(c3ncccn3)C[C@H]1O2,-4.11
12,Cc1nc(NCCSc2cnn[nH]2)c2c(C)noc2n1,7.78
13,CC(C)CNc1nc(C(=O)/N=c2\[nH]nc(C(C)(C)C)s2)cs1,4.48
14,COc1ccc(-c2ccc(C3CNCCO3)nc2)cc1 (stereo not drawn),-5.61
15,CCc1nc(C)c([C@H]2CN(C)C[C@@H]2C(=O)NC(C)(C)c2ccccc2)[nH]1,-6.37
16,Cc1cc2c(=O)n3c(nc2s1)CCN(C(=O)c1cnn(C)c1)CC3,-7.07
17,CCn1cc(CN2CCC(O)(Cn3nc(C)ccc3=O)CC2)cn1,-4.18
18,CC(=O)N1[C@H](CN(C)C)C[C@@H]2CN(C(=O)c3ccno3)CC[C@@H]21,-9.81
19,O=C(NCCc1ccccc1)C1CCCN(c2ccc3nncn3n2)C1 (stereo not drawn),-9.33
20,O=C(Nc1cnccn1)[C@@H]1CCO[C@@H]2CCN(Cc3ccsc3)C[C@@H]21,-9.48
21,Cc1cccc(CO[C@H]2CN(c3nnc(C)s3)[C@@H]3CCCO[C@H]23)n1,0.219
22,Cc1noc(C)c1-c1cccc(C2CN(S(=O)(=O)N(C)C)CCO2)n1 (stereo not drawn),-3.96
23,CSc1cccc(CC(=O)N[C@@H]2CCNC[C@H]2O)c1,10.3

row,Compound,cytotoxicity at 70.5 h [%]
1,O=C(NCCNc1ncccn1)C1CCN(c2ncccn2)CC1,-10.8
2,CC(OCC1CC1)C(=O)NCCC(=O)Nc1ccccn1 (stereo not drawn),-7.55
3,NC(=O)Cn1cc(NC(=O)N2CCN(c3ccccc3)CC2)cn1,-12.6
4,Cc1ccccc1-n1ncc(C(C)N)c1C (stereo not drawn),26.7
5,CCc1ncc(CN2CCC(Oc3ccccc3OC)CC2)cn1,-0.00137
6,Cc1nn(C)c(N(C)C)c1CNCC(O)COc1ccccc1 (stereo not drawn),-0.0724
7,CC(Cn1ccnc1)NC(=O)NCCc1ccc(Cl)s1 (stereo not drawn),-4.32
8,C[C@@H]1CN(S(=O)(=O)c2ccc(F)cc2Cl)C[C@]1(C)O,-0.172
9,CN(CC(=O)c1ccc2[nH]c(=O)[nH]c2c1)Cc1ccc2c(c1)OCO2,-3.13
10,CC(C)C1CN(C(=O)c2ccc(C(N)=O)cc2)CCS1 (stereo not drawn),-6
11,CC(C)c1nc(C2CCCN(Cc3nnc(C4CC4)o3)C2)no1 (stereo not drawn),-8.01
12,Cc1ccc(NCCNC(=O)C2Cc3cc(C)c(C)cc3O2)nn1 (stereo not drawn),-2.18
13,Cc1cc(C(=O)N2CCC(CCn3cccn3)CC2)c(C)o1,-5.22
14,C=C(C)COc1ccccc1CN1CCC(NC(C)=O)CC1,25.2
15,CC(C)c1ncncc1C(=O)NCCN1CCCCC1C (stereo not drawn),-1.51
16,CCNc1cc2c(nn1)CCN(C(=O)Cc1ccc3c(c1)CCO3)C2,-7.37
17,O=C1CC2(CCN(S(=O)(=O)C3CC3)C2)CN1c1cncnc1 (stereo not drawn),4.54
18,CC(C)N(C(=O)CCc1ccco1)C1CCOCC1,-9.28
19,O=C(c1ccoc1)N1CC[C@H]2[C@H]1CCN2CC1CC1,-3.04
20,O=C(O)C1(Cc2cccc(-c3ccc(F)cc3)c2)CCOCC1,9.21
21,Cc1cc(C)n(CC2(CNC(=O)C(c3ccccc3F)N(C)C)CC2)n1 (stereo not drawn),-5.49
22,CN(C)S(=O)(=O)N1CCN(c2ccnc(N3CCCC3)n2)CC1,-12.4
23,O=C(NC1CC1)N1CCCC2(CCCCN2)C1 (stereo not drawn),-5.05

row,Compound,cytotoxicity at 70.5 h [%]
1,Cc1cc(CN2CCC(CNC(=O)CN3CCCCCC3)C2)[nH]n1 (stereo not drawn),14.2
2,c1cncc(CNC2CCc3ncnn3C2)c1 (stereo not drawn),34.5
3,CCN1CCC(CC(=O)NCCc2nc(C)c(Cl)s2)CC1,-6.45
4,NC(=O)CN1CC2(CCC1=O)CCN(Cc1cc(F)cc(F)c1)CC2,-0.945
5,Cc1cnn(CC2CCCN2Cc2coc(-c3cccs3)n2)c1 (stereo not drawn),-0.977
6,Cc1csc2c(N3CCNC(C(=O)Nc4ccc(F)cc4)C3)ncnc12 (stereo not drawn),-9.29
7,CCCc1nc(CN(CC)C(=O)c2ccc(OC)c(OC)c2)no1,25.6
8,CN(C)C1COC2(CCN(Cc3ccc4c(c3)OCO4)CC2)C1 (stereo not drawn),2.59
9,CNC(=O)CS(=O)(=O)C1CCN(S(=O)(=O)c2ccccc2Br)CC1,-8.95
10,Cn1ncc(Cl)c1C(=O)N1CCc2nc3sccc3c(=O)n2CC1,33.8
11,O=C(NCC(Cc1cccc(F)c1)n1cccc1)C1CC1 (stereo not drawn),-16.2
12,COc1ccc(F)cc1S(=O)(=O)N1CCC(Oc2ccc(Cl)cn2)CC1,-3.49
13,CCN(CC(=O)N(C)C)C(=O)c1ccc(-c2nc(C)cs2)cc1,-4.36
14,CN(C)Cc1nn(C)c2c1CN(C(=O)c1ccc[nH]1)C2,-0.767
15,c1cc(CN2CCOC(Cn3cccn3)C2)c2c(c1)OCCO2 (stereo not drawn),-14.1
16,O=C(N[C@H]1CN[C@H]2CCCO[C@H]21)c1cccnc1,-10.1
17,Cc1cccnc1N1CCN(C(=O)CCc2ccccn2)CC1,20.1
18,CC(C)N(C)Cc1nnc2n1CCCN(c1cnccn1)C2,-4.42
19,CCN(Cc1cccc2c1OCO2)C(=O)Nc1ccncc1,5.81
20,CO[C@H]1CN(C(=O)OC(C)(C)C)CC1NCc1cc[nH]c1 (stereo partly drawn),-20.4
21,O=C1COc2ccc(C(=O)NS(=O)(=O)c3ccccc3Cl)cc2N1,-14.9
22,Nc1nccc(C2CCCCN2Cc2cccc(F)c2)n1 (stereo not drawn),-2.1
23,OC[C@H]1CN(Cc2c(Cl)cncc2Cl)C[C@H]1CN1CCCC1,-9.31

row,Compound,cytotoxicity at 70.5 h [%]
1,COc1ccc(-n2cnnc2CC2CCNCC2)cc1,1.1
2,CN(C)[C@@H]1CCN(C(=O)Cc2cccs2)[C@H]1Cc1ccncc1,-8
3,Cc1cc(C(=O)NCCC(=O)N2CCCc3ccccc32)no1,-4.18
4,O=C(Cc1ccsc1)N1CCC(c2noc(-c3cccnc3)n2)CC1,-2.37
5,Cc1ccc(NC2CCN(C(=O)c3ccc(Cl)cc3F)CC2)nn1,23.4
6,O=c1c(Cc2ccccc2)c(O)ccn1CCc1ccccc1,-3.9
7,O=C(Nc1cnc(C2CC2)nc1)N1CCC(CN2CCCC2)C1 (stereo not drawn),17.5
8,CC(C)c1cc(NCc2csc(C(C)C)n2)nc(N)n1,24.3
9,COc1ccc(OC(F)F)c(NCC(=O)NCC(=O)N2CCCC2)c1,-7.93
10,CNc1nc(CNC(=O)Nc2cccc(F)c2C)cs1,-7.06
11,COc1ccc(F)cc1CSCC(=O)N(CCC#N)CCC#N,-3.2
12,CNc1cccc(C2CCN(C(C)=O)CC2)n1,-5.62
13,CN(Cc1cccnc1)[C@@H]1CN(Cc2nccn2C)[C@@H]2CCCO[C@H]12,-4.78
14,CCC(C#N)NC(=O)c1sccc1OC (stereo not drawn),-10.7
15,CC(c1ccco1)N(C(=O)Cn1nc2n(c1=O)CCCCC2)C1CC1 (stereo not drawn),18
16,Cc1nc(-c2cccc(C(=O)O)c2)c[nH]1,15.3
17,CCC(=O)N1CCCC1c1nc(N(C)C)ncc1-c1ccc(Cl)cc1 (stereo not drawn),2.05
18,Cc1ccc(C(=O)N2CC(=O)N(Cc3ccco3)CC(O)C2)cc1 (stereo not drawn),-2.64
19,O=C(c1cccs1)N1C[C@H]2CCC[C@@]2(COCC2CCOCC2)C1,23.2
20,O=C(O)c1ccc2c(CN3CCCC3)c[nH]c2c1,5.69
21,CCOc1ccc(CSC(C)c2nc(C)no2)nc1 (stereo not drawn),-6.64
